{"source": "patent US9364453B2", "about": "“Method of treating postural reflex abnormality caused by parkinson's disease” (Lundbeck NA Ltd., priority 2011, dated 2016)", "key": {"[1]": {"tested_on": "PA disease patient with pure akinesia and chief complaint of freezing of gait", "assay": "Example 2: treatment of a PA disease patient with pure akinesia and chief complaint of freezing of gait", "format": "in vivo, human", "conditions": "person; DOPS 300 mg/day in 3 portions", "description": "Treatment effect of therapeutic agent of the present invention for PA disease patient with pure akinesia and chief complaint of freezing of gait A PA disease patient with pure akinesia and chief complaint of freezing of gait: person. a) DOPS (300 mg/day) was administered in 3 portions, but ineffective. b) DOPS (300 mg/day) and Comtan® (300 mg/day) as a COMT inhibitor were simultaneously administered in 3 portions each. […] Combined use of DOPS and Comtan® (COMT inhibitor) was effective even in a treatment without using an L-DOPA preparation and a dopamine receptor stimulator."}, "[2]": {"tested_on": "PA disease patient with pure akinesia and chief complaint of freezing of gait, not responsive to L-DOPA preparation", "assay": "Example 3: treatment of a PA disease patient with pure akinesia and freezing of gait, not responsive to L-DOPA preparation", "format": "in vivo, human", "conditions": "person, DOPS 600 mg/day in 3 portions", "from_the_text": "A combined use of DOPS and a COMT inhibitor was effective for the “freezing of gait symptom” for which L-DOPA preparation is not effective."}, "[3]": {"tested_on": "patients with PA disease", "conditions": "cited from earlier work"}, "[4]": {"biological_target": "T1, aromatic amino acid decarboxylase (AADC) (Homo sapiens, UniProt P20711)", "T1 sequence (P20711 1-480)": "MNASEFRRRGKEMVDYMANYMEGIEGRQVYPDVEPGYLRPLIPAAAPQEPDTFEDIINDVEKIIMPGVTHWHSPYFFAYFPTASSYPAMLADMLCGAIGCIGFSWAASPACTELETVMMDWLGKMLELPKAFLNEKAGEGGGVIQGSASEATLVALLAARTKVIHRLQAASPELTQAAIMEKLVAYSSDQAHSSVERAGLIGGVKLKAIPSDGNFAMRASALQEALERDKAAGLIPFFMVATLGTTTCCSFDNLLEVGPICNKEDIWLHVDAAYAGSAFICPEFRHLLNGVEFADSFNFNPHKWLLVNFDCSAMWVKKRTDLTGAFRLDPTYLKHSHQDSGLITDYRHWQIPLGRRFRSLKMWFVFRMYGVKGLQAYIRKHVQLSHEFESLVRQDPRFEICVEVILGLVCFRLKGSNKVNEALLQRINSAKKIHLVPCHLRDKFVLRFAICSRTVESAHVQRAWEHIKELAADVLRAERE", "conditions": "as compared to L-DOPA; cited from earlier work"}, "[5]": {"conditions": "as compared to L-DOPA; cited from earlier work"}}, "data": [{"smiles": "N[C@H](C(=O)O)[C@H](O)c1ccc(O)c(O)c1", "note": "[DOPS, L-threo-3,4-dihydroxy-phenylserine]", "values": [{"measurement": "effect on freezing of gait", "setting": "[1]", "result": "ineffective"}, {"measurement": "effect on freezing of gait", "setting": "[2]", "result": "slight improvement effect"}, {"measurement": "clinical trial results versus placebo", "setting": "[3]; double-blind comparison, DOPS in optically active form", "result": "significantly superior to that of placebo"}, {"measurement": "efficacy rate", "setting": "[3]; in vivo", "result": "not necessarily high"}, {"measurement": "decarboxylation reaction rate", "setting": "[4]", "result": "low"}, {"measurement": "transferability into the brain", "setting": "[5]", "result": "low"}]}]}
